# Reference: patent US7052834B1, “Tumor suppressor protein involved in death signaling, and diagnostics, therapeutics, and screening based on this protein” (St. Jude Children's Research Hospital, priority 1998, dated 2006)
# Peptide text beside a SMILES is read from it. * marks the point of attachment. Cbz = O=C(OCc1ccccc1)*; CH2F = FC*
# Experiments:
# [1] = system: NB11; test: 5-aza-cytidine treatment: caspase-8 western blot; assay type: cell-based, human; details: 10–50 μM for 2–3 days
# Excerpt: (§1) Caspase-8 western blot analysis of cell lysates from the NB8, NB10, and NB14 cell lines with (+) or without (−) 5-aza-2′-deoxycytidine. […] We therefore examined DNA methylation of CASP8 regulatory sequences as an alternative mechanism through which expression could be silenced, as documented for several tumor suppressor genes, such as INK4a, CDKN1, CDKN2, PTEN, MLH1, von Hippel-Lindau, and E-cadherin (Baylin et al., Adv. Cancer Res., 1998, 72:141–196; Belinsky et al., Proc. Natl. Acad. Sci. USA, 1998, 95:11891; Whang et al., Proc.Natl.Acad.Sci.USA,1998, 95:5246–5250; Merlo et al., Nature Medicine, 1995, 1:686–692).
# (§2) The role of methylation of CASP8 regulatory sequences was tested by treating NB cells with 5-aza-cytidine, a compound that promotes the demethylation of CpG dinucleotides (Merlo et al., Nature Medicine, 1995, 1:686–692). When cells were treated with 10–50 μM 5-aza-cytidine for 2–3 days, caspase-8 expression was activated in the NB8 and NB11 cell lines, but not NB14 (FIG. 6A).
# [2] = system: NB8; test: 5-aza-cytidine treatment: caspase-8 western blot and apoptosis; assay type: cell-based, human
# Excerpt: as §1, §2
# [3] = system: NB14; test: as above; assay type: cell-based, human; details: after 10–50 μM for 2–3 days
# Excerpt: as §1, §2
# [4] = system: NB10; test: as above; assay type: cell-based, human
# Excerpt: as §1, §2
# [5] = system: neuroblastoma cell lines; test: Apoptosis after re-establishing caspase-8 expression; assay type: cell-based, human; details: cell lines not expressing caspase-8
# Excerpt: The present invention is based, in part, on the surprising discovery that CASP8 is functionally inactivated in greater than 90% of all MYCN amplified neuroblastoma cell lines analyzed. Neuroblastoma is a pediatric solid tumor, and those cases with MYCN amplification have a particularly poor prognosis. […] This discovery is significant in oncology, because cells in which caspase-8 is not expressed are not capable of undergoing apoptosis mediated by death receptors such as Fas and DR3.
# [6] = system: NB5; test: Doxorubicin-induced apoptosis (TUNEL); assay type: cell-based, human; details: 0.1 mM doxorubicin for 48 hrs, percentage of cell death by TUNEL
# [7] = system: NB7; test: Doxorubicin-induced apoptosis (TUNEL); assay type: cell-based, human
# Protocol: (§3) In order to determine whether exogenous expression of caspase-8 resensitized caspase-8 null NB cells to chemotherapeutic agents, NB7 cells and NB7 cells transduced with pMSCV-Casp8(wt) were treated with doxorubicin. Doxorubicin-induced neuroblastoma apoptosis has previously been linked to the Fas receptor pathway (Fulda et al., Cancer Res., 1997, 57:3823–3829). The NB7 cell line was chosen since it lacks a functional CASP8 gene (FIGS. 4 and 5, Table 2).
# [8] = system: NB8; test: Doxorubicin-induced apoptosis (TUNEL); assay type: cell-based, human; details: 0.1 mM doxorubicin for 48 hrs
# [9] = system: NB cell lines; test: Sensitivity of NB cell lines to doxorubicin-induced apoptosis; assay type: cell-based, human
# Protocol: as §3
# [10] = system: NB3; test: Doxorubicin-induced apoptosis (TUNEL); assay type: cell-based, human; details: 0.1 mM doxorubicin for 48 hrs, percentage of cell death by TUNEL
# [11] = system: NB8; test: Fas mAb-induced apoptosis in cells with programmed caspase-8 expression; assay type: cell-based, human; details: zVAD-fmk added prior to programmed expression of caspase-8
# Protocol: (§4) FIGS. 8A, 8B, 8C, 8D, and 8E. Effects of retrovirus expression of caspase-8 in three different NB cell lines that are caspase-8 nulls. […] The caspase-8(DN) product migrates at a higher molecular weight due to an HA-tag attached to its carboxyl-terminus. B, C:Morphology of NB7/Casp8 cells 5 hours after treatment with TNFα and cycloheximide. Membrane blebbing (Nomarski view, B) and condensed chromatin (visualized by DAPI staining, C), characteristics of apoptotic cells, are clearly visible. D:Percentage of cells that are positive for cell surface annexin-V staining, another hallmark of apoptotic cells. The various cell lines and their treatment regimens are shown at the bottom. E: Apoptotic induction by Fas mAb in proliferating NB8 and NB10 cells stably expressing caspase-8 at a low level. Induction measured as percentage of cells that are TUNEL-positive. The various cell lines and their treatment regimens are shown at the bottom.
# (§5) Apoptotic assays. Cells were collected for annexin V-FITC staining and FACS analysis after the culture media containing zVAD-fmk was removed and replaced with normal culture medium for 6 hours in NB8 and NB 10. […] Viable cells were determined by light and immunofluorescent microscopy after removal of the zVAD-fmk containing culture medium and incubation at 37° C. for 0.5, 1, 2, 4 and 6 hrs for the pMSCV-Casp 8(wt) and DN transduced NB8 and NB10 cells. […]
# [12] = system: NB10; test: as above; assay type: cell-based, human; details: zVAD-fmk added prior to programmed expression of caspase-8
# Protocol: as §4, §5
# [13] = molecular target: TNFR p55 (human) (UniProt P19438); test: cell-based or functional assay
# Chain of TNFR p55 (human) (P19438 30-455): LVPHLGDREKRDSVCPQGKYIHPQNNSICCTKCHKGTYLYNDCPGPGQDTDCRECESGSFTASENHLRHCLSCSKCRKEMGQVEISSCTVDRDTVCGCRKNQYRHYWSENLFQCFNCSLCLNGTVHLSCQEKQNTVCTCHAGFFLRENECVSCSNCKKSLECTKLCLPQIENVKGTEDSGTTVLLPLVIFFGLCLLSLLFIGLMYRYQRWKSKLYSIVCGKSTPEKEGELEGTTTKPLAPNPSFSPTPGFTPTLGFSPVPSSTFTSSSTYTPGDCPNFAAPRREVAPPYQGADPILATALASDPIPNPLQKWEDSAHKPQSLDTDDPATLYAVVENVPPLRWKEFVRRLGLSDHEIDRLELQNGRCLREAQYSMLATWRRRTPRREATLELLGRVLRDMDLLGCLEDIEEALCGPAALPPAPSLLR
compound,measurement,setting,value
Nc1ncn([C@@H]2O[C@H](CO)[C@@H](O)[C@H]2O)c(=O)n1 [5-aza-cytidine],caspase-8 expression,[1],activated
same,caspase-8 expression,[2]; 10–50 μM for 2–3 days,activated
same,spontaneous apoptosis,[2]; after 10–50 μM for 2–3 days,underwent spontaneous apoptosis
same,spontaneous apoptosis,[3],not
same,caspase-8 expression,[4]; FIG. 6A,results in the expression of caspase-8
same,spontaneous apoptosis,[4]; after 10–50 μM for 2–3 days,underwent spontaneous apoptosis
same,apoptosis when caspase-8 expression is re-established,[5],undergo apoptosis
"COc1cccc2c1C(=O)c1c(O)c3c(c(O)c1C2=O)C[C@@](O)(C(=O)CO)C[C@@H]3O[C@H]1C[C@H](N)[C@H](O)[C@H](C)O1 [Doxorubicin, doxorubicin]",Doxorubicin-induced Apoptosis,[6],54 +/− 4.6%
same,Doxorubicin-induced Apoptosis (+caspase-8),"[7]; NB7 +caspase-8, 0.1 mM doxorubicin for 48 hrs, TUNEL",42 +/− 2.6%
same,Doxorubicin-induced Apoptosis,"[7]; NB7, 0.1 mM doxorubicin for 48 hrs, percentage of cell death by TUNEL",24 +/− 3%
same,increase in the level of cell death,"[7]; NB7 cells expressing functional caspase-8 vs parental/pMSCV/pMSCV-Casp8(DN), low levels of doxorubicin",70–100%
same,apoptosis after exposure to low levels of doxorubicin,[7]; parental NB7 cells and those transduced with pMSCV or pMSCV-Casp8(DN),very limited apoptosis
same,Doxorubicin-induced Apoptosis (+caspase-8),"[8]; NB8 +caspase-8, TUNEL",38 +/− 2%
same,Doxorubicin-induced Apoptosis,"[8]; NB8, percentage of cell death by TUNEL",18 +/− 2.6%
same,sensitization to doxorubicin-induced apoptosis,"[9]; NB cell lines (e.g., NB16 and NB21) expressing caspase-8",more sensitized
same,sensitization to doxorubicin-induced apoptosis,"[9]; cell lines that do not express caspase-8, regardless of Fas/CD95 status",not sensitized
same,Doxorubicin-induced Apoptosis,[10],52 +/− 4%
COC(=O)C[C@H](NC(=O)[C@H](C)NC(=O)[C@@H](NC(=O)OCc1ccccc1)C(C)C)C(=O)CF [zVAD-fmk] (Cbz-Val-Ala-Asp(OMe)-CH2F),apoptosis induced by agonistic Fas mAb,[11],blocked
same,apoptosis induced by agonistic Fas mAb,[12],blocked
TNF-α (ligand),"apoptosis of NB7 cells lacking caspase-8, five hours after TNF-α/CHX treatment (annexin-V staining)",[13],5%
same,"apoptosis of NB7 cells transduced with pMSCV-Casp8(wt), five hours after TNF-α/CHX treatment (DAPI, annexin-V staining)",[13],40%
